Experimental findings from patent US8778966B2, “Quinolinone derivatives as PARP and tank inhibitors” (Janssen Pharmaceutica, NV, priority 2007, dated 2014) are described below.

Assay [1] relates to HCT116 cells. Kind of assay: Antiproliferative activity, Alamar Blue assay, HCT116 cells. In kind it is cell-based, human. The arrangement: key to HCT116 antiproliferative activity pIC50: pIC50 = -log IC50 (IC50: conc. reducing growth to 50% of control). The note with it: for IC50: Homo sapiens, HCT-116, HCT116 cells, read-out: HCT116 antiproliferative activity pIC50 (converted). Summed up:
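Readout is resazurin fluorescence (ex 540, em 590 nm) after a 4 h dye incubation at 37 °C, following 4-day compound treatment of HCT116 cells plated 24 h earlier. Results expressed as % viable cells versus untreated; pIC50 derived from probit-fitted IC50.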
A general note: Alamar Blue is a resazurin reagent that responds to reducing activity.

Assay [2] has as its system PC3 cells. Kind of assay: EB1 Comet (microtubule disruption) assay. The class given is cell-based, human. Conditions: 1 hour treatment; for minimal effective concentration: Homo sapiens, PC-3, 1 h, read-out: EB1 pLAC (converted). Put shortly:
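Readout is loss of Eb1 plus-end foci, scored by immunofluorescence microscopy, in PC3 cells after 1 h compound treatment at 37 °C with 0.6% final DMSO. LAC is defined as the lowest concentration leaving at least 50% of cells without Eb1 foci.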

Assay [3] deals with PC-3 cells. Kind of assay: Antiproliferative activity, Alamar Blue assay, PC-3 cells. The class given is cell-based, human. The note with it: for IC50: Homo sapiens, PC-3, PC3 cells, read-out: PC3 antiproliferative activity pIC50 (converted). Put shortly: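 Resazurin-based fluorescence (540 nm ex/590 nm em) measured after 4-day compound treatment plus 24 hrs dye incubation at 37° C. Cells plated at 4.5×10^3 cells/ml, adhered 24 hr first. pIC50 from probit-derived IC50 on % viable cells versus untreated, triplicate wells.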

Assay [4] deals with tubulin. Kind of assay: Tubulin polymerization assay. In kind it is biochemical. The arrangement: key: a compound showing 0 to 50% inhibition at 20 μM is reported as score 1; Score 2 compounds are defined as compound showing more than 50% inhibition at 20 μM and less than 50% inhibition at 5 μM; a compound showing more than 50% inhibition at 5 μM is reported as score 3. Conditions: tested at 20 μM and 5 μM. On the procedure:
The tubulin polymerization assay is an adaptation of an assay originally described by Bonne, D. et al. (J. Biol. Chem., 1985, 260:2819-25). The assay kit was purchased from Cytoskeleton, Inc. (catalogue number BK011) and the assay was performed as described by the supplier with the following modifications. The assay was run in a 384-well black Proxiplate (Perkin Elmer) and volumes were adapted accordingly. The reactions were carried out in a final volume of 10 μl. Compounds were added to 25 μl of the reaction mix in 96-well PP plates (Corning) on ice and 10 μl of this mixture was dispensed into duplicates of the 384-well Proxiplates pre-warmed to 37° C. in a Fluoroskan Ascent plate reader (Thermo Scientific). Fluorescence measurements were taken every minute for one hour. The maximum slope of each well was determined (linear regression through 4 consecutive points) and polymerization was calculated as a percentage of polymerization observed in the absence of compound. Compounds were first measured at a concentration of 20 μM and then at 5 μM for those showing more than 50% inhibition at 20 μM as compared to the polymerization observed in the absence of compound. Results are reported in Table F-2 as scores defined as: a compound showing 0 to 50% inhibition at 20 μM is reported as score 1; a compound showing more than 50% inhibition at 5 μM is reported as score 3.

Molecules are shown by their SMILES.

For the molecule `CCc1cc2ccc(C(C)(C#N)Cc3ccc(C(F)(F)F)nc3C)cc2[nH]c1=O` (centres unmarked) [Compound 340], the IC50 in assay [1] is 3160 nM; in assay [3] it was 3980 nM. Further, the minimal effective concentration in assay [2] is 10 µM. For the same molecule, the tubulin polymerisation score in assay [4] is 1 (a compound showing 0 to 50% inhibition at 20 μM is reported as score 1).

For the molecule `CCc1cc2ccc(C(C#N)(CC)Cc3cccc(C#N)n3)cc2[nH]c1=O` (centres unmarked) [Compound 342], the IC50 in assay [1] is 501 nM; in assay [3] it was 1260 nM. In addition, the minimal effective concentration in assay [2] is 3.16 µM. For the same molecule, the tubulin polymerisation score in assay [4] is on record as 3 (a compound showing more than 50% inhibition at 5 μM is reported as score 3).

As to `CCc1cc2ccc(C(C)(C#N)CCOc3ncc(Br)cn3)cc2[nH]c1=O` (centres unmarked) [Compound 349], the IC50 in assay [1] is 631 nM; in assay [3], 1580 nM. Further, the minimal effective concentration in assay [2] is 1 µM. In addition, the tubulin polymerisation score in assay [4] is given as 2.

As to `CCc1cc2ccc(C(C)(C#N)Cc3nc(C)cc(OC)n3)cc2[nH]c1=O` (centres unmarked) [Compound 371], the IC50 in assay [1] was 316 nM; in assay [3] it was 398 nM. The minimal effective concentration in assay [2] was 0.316 µM. Also, the tubulin polymerisation score in assay [4] is recorded as 1 (a compound showing 0 to 50% inhibition at 20 μM is reported as score 1).

Take `CCc1cc2ccc(C(C)(C#N)CN3CCc4ccccc4C3)cc2[nH]c1=O` (centres unmarked) [Compound 376]: the results for the IC50 in assay [1] and in assay [3] were 2000 nM and 2510 nM, respectively. Also, the minimal effective concentration in assay [2] was 3.16 µM. Also, the tubulin polymerisation score in assay [4] is 1 (a compound showing 0 to 50% inhibition at 20 μM is reported as score 1).

On to `CCc1cc2ccc([C@](C)(C#N)C[C@H]3Cc4ccccc4O3)cc2[nH]c1=O` [Compound 397], for which the IC50 in assay [1] is 7940 nM; in assay [3], 10000 nM. Moreover, in assay [2], the minimal effective concentration is 3.16 µM. For the same molecule, in assay [4], the tubulin polymerisation score was 1 (a compound showing 0 to 50% inhibition at 20 μM is reported as score 1).

Regarding `CCc1cc2ccc(C(C)(C#N)CC3Oc4ccccc4O3)cc2[nH]c1=O` (centres unmarked) [Compound 398], the IC50 was 5010 nM in assay [1] and 7940 nM in assay [3]. Also, the minimal effective concentration in assay [2] is 3.16 µM. This molecule returned a tubulin polymerisation score in assay [4] of 2.

For the molecule `CCc1cc2ccc(C(C)(C#N)Cc3cc(F)cc(F)c3)cc2[nH]c1=O` (centres unmarked) [Compound 402], in assay [1] (HCT116 cells), the “HCT116 antiproliferative activity pIC50” value was 6.7. In addition, the “EB1 pLAC” value in assay [2] came to 6.5. Moreover, the “PC3 antiproliferative activity pIC50” value in assay [3] (PC3 cells) amounted to 6.4. Further, the tubulin polymerisation score in assay [4] is recorded as 1 (a compound showing 0 to 50% inhibition at 20 μM is reported as score 1).
